According to patent publication US11040026B2, “Muscarinic M1 receptor positive allosteric modulators” (SUVEN LIFE SCIENCES LIMITED, priority 2016, dated 2021):

Experiments:
muscarinic M1 receptor = target: T1, muscarinic M1 receptor (Homo sapiens, UniProt P11229); experiment: Allosteric potency EC50 for muscarinic M1 receptor (CHO pCRE-Luc reporter assay); format: cell-based; conditions: in presence of EC20 of acetylcholine; CHO cells, luciferase reporter, 4 hours
T1 sequence (P11229 1-460): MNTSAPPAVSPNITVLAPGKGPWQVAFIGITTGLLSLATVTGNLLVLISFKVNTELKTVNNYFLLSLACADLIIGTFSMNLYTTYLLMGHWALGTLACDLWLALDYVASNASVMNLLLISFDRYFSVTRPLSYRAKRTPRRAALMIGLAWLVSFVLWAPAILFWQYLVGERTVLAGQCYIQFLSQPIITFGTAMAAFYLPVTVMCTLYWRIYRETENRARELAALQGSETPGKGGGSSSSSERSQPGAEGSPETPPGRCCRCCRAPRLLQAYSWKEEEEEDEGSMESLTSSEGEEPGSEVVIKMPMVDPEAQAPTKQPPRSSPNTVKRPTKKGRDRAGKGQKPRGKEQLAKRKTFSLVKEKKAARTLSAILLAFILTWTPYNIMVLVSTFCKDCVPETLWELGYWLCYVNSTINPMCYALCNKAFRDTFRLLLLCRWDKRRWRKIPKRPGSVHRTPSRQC
Experimental: Determination of Allosteric Potency EC50 Values for Muscarinic M1 Receptor:
A stable CHO cell line expressing recombinant human Muscarinic M1 receptor and pCRE-Luc reporter system was used for cell-based assay. The assay offers a non-radioactive based approach to determine binding of a compound to GPCRs. In this specific assay, the level of intracellular cyclic AMP which is modulated by activation or inhibition of the receptor is measured. The recombinant cells harbor luciferase reporter gene under the control of cyclic AMP response element.
The above cells were grown in 96 well clear bottom white plates in Hams F12 medium containing 10% fetal bovine serum (FBS). Prior to the addition of compounds or standard agonist, cells were serum starved overnight. Increasing concentrations of test compounds were added along with EC20 of acetylcholine in OptiMEM medium to the cells. The incubation was continued at 37° C. in CO2 incubator for 4 hours. Medium was removed and cells were washed with phosphate buffered saline. The cells were lysed and luciferase activity was measured in a Luminometer. Luminescence units were plotted against the compound concentrations using Graphpad software. EC50 values of the compounds were defined as the concentration required in stimulating the luciferase activity by 50% in presence of EC20 of acetylcholine and the results are provided in table 1.

[1] = Rodent pharmacokinetic study; format: in vivo, Male Wistar rats; conditions: rat; for AUC(0-t) / clearance / half-life / Cmax: male, Wistar, plasma; for F: oral (gavage) 3 mg/kg vs intravenous 1 mg/kg
Experimental: Rodent Pharmacokinetic Study
Male Wistar rats (260±50 grams) were used as experimental animals. Animals were housed individually in polypropylene cage. Two days prior to study, male Wistar rats were anesthetized with isoflurane for surgical placement of jugular vein catheter. Rats were randomly divided for oral (3 mg/kg) and intravenous (1 mg/kg) dosing (n=3/group) and fasted overnight before oral dosing (p.o.). However, rats allocated to intravenous dosing food and water was provided ad libitum.
At pre-determined point, blood was collected through jugular vein and replenished with an equivalent volume of normal saline. Collected blood was transferred into a labeled eppendorf tube containing 10 μL of heparin as an anticoagulant. Typically blood samples were collected at following time points: 0.08, 0.25, 0.5, 1, 2, 4, 6, 8, and 24 hours post dose. Blood was centrifuged at 4000 rpm for 10 minutes. Plasma was separated and stored frozen at −80° C. until analysis. The concentrations of the test compounds were quantified in plasma by qualified LC-MS/MS method using suitable extraction technique. The test compounds were quantified in the calibration range around 1-1000 ng/mL in plasma. Study samples were analyzed using calibration samples in the batch and quality control samples spread across the batch.
Pharmacokinetic parameters Cmax, AUCt, T1/2, Clearance and Bioavailability (F) were calculated by non-compartmental model using standard non-compartmental model by using Phoenix WinNonlin 6.0.4 version Software package.

[2] = Rodent brain penetration study; format: in vivo, Male Wistar rats; conditions: male, Wistar, brain and plasma, po; rat, 3 mg/kg, p.o., brain-plasma ratio; read-out: Single dose Rat Brain Penetration (Cb/Cp) at 3 mg/kg, p.o.
Experimental: Rodent Brain Penetration Study
Male Wistar rats (260±40 grams) were used as experimental animals. Three animals were housed in each cage. Animals were given water and food ad libitum throughout the experiment and maintained on a 12 hours light/dark cycle.
Brain penetration was determined in discrete manner in rats. One day prior to dosing day, male Wistar rats were acclimatized and randomly grouped according to their weight. At each time point (0.50, 1 and 2 hours) n=3 animals were used.
The test compounds were suitably preformulated and administered orally at (free base equivalent) 3 mg/kg. Blood samples were removed via cardiac puncture by using isoflurane anesthesia. The animals were sacrificed to collect brain tissue. Plasma was separated and brain samples were homogenized and stored frozen at −20° C. until analysis. The concentrations of the test compounds in plasma and brain were determined using LC-MS/MS method.
The test compounds were quantified in plasma and brain homogenate by qualified LC-MS/MS method using suitable extraction technique. The test compounds were quantified in the calibration range of 1-500 ng/mL in plasma and brain homogenate. Study samples were analyzed using calibration samples in the batch and quality control samples spread across the batch. Extent of brain-plasma ratio (Cb/Cp) was calculated

Male Wistar rats = experiment: Object recognition task model; format: in vivo; conditions: rat, p.o.; for Exploration time mean ± S.E.M, Familiar object / Exploration time mean ± S.E.M, Novel object: choice trial 24 hours after T1
Experimental: Object Recognition Task Model
Male Wistar rats (8-10 weeks old) were used as experimental animals. Four animals were housed in each cage. Animals were kept on 20% food deprivation from a day prior to experimentation. Water was provided ad libitum throughout the experiment. Animals were maintained on a 12 hours light/dark cycle in temperature and humidity controlled room. The experiment was carried out in an circular or square arena made up of acrylic. Rats were habituated to individual arenas for up to 1 hour in the absence of any objects on day 1.
One group of 12 rats received vehicle and another set of animals received test compounds, before familiar (T1) and choice (T2) trials. During the familiarization phase, (T1), the rats were placed individually in the arena for 3 minutes, in which two identical objects (a1 and a2) were positioned 10 cm from the wall. 24 hours after T1, trial for long-term memory test was performed. The same rats were placed in the same arena as they were placed in T1 trial. During the choice phase (T2) rats were allowed to explore the arena for 3 minutes in presence of a copy of familiar object (a3) and one novel object (b). During the T1 and T2 trial, explorations of each object (defined as sniffing, licking, chewing or having moving vibrissae whilst directing the nose towards the object at a distance of less than 1 cm) were recorded using stopwatch.
T1 is the total time spent exploring the familiar objects (a1+a2).
T2 is the total time spent exploring the familiar object and novel object (a3+b).
The object recognition test was performed as described in Behav. Brain Res., 1988, 31, 47-59.

SMILES | EC50 (muscarinic M1 receptor) [nM] | AUC(0-t) ([1]; intravenous (bolus), 1 mg/kg) [ng·h/mL] | clearance ([1]; intravenous (bolus), 1 mg/kg) [mL/min/kg] | half-life ([1]; intravenous (bolus), 1 mg/kg) [h] | AUC(0-t) ([1]; oral (gavage), 3 mg/kg) [ng·h/mL] | Cmax ([1]; oral (gavage), 3 mg/kg) [ng/mL] | half-life ([1]; oral (gavage), 3 mg/kg) [h] | F [1] [%] | Kp [2] | Inference (Male Wistar rats; 10 mg/kg) | Exploration time mean ± S.E.M, Familiar object (Male Wistar rats; 10 mg/kg) [s] | Exploration time mean ± S.E.M, Novel object (Male Wistar rats; 10 mg/kg) [s] | Inference (Male Wistar rats; 3 mg/kg) | Exploration time mean ± S.E.M, Familiar object (Male Wistar rats; 3 mg/kg) [s] | Exploration time mean ± S.E.M, Novel object (Male Wistar rats; 3 mg/kg) [s]
CN1CCc2c(Cc3ccnc(F)c3)cc(C(=O)N[C@H]3CCCC[C@@H]3O)nc21 [Example 73, N-[(1S,2S)-2-Hydroxycyclohexyl]-4-(2-fluoropyridin-4-ylmethyl)-1-methyl-2,3-dihydro-1H-pyrrolo[2,3-b]pyridine-6-carboxamide] | 786 | 742 ± 40 | 22 ± 1 | 1.1 ± 0.3 | 1740 ± 296 | 1100 ± 85 | 1.2 ± 0.1 | 78 ± 13 | – | – | – | – | – | – | –
CN1CCOc2c(Cc3ccc(F)cc3)cc(C(=O)N[C@@H]3CCOC[C@H]3O)nc21 (single isomer, unassigned; isomer-ii) [Example 124, trans-N-(3-Hydroxytetrahydropyran-4-yl)-8-(4-fluorobenzyl)-4-methyl-2H-pyrido[3,2-b][1,4]oxazine-6-carboxamide (Isomer-II)] | – | 787 ± 130 | 21 ± 3 | 1.1 ± 0.1 | 526 ± 126 | 306 ± 66 | 0.5 | 22 ± 5 | 0.52 ± 0.05 | – | – | – | – | – | –
Cn1ccc2c(Cc3ccc(F)cc3)cc(C(=O)N[C@@H]3COCC[C@@H]3O)nc21 (single isomer, unassigned; isomer-i) [Example 65, cis-N-(4-Hydroxytetrahydropyran-3-yl)-4-(4-fluorobenzyl)-1-methyl-1H-pyrrolo[2,3-b]pyridine-6-carboxamide (Isomer-I)] | – | – | – | – | – | – | – | – | 0.32 | – | – | – | – | – | –
Cn1ccc2c(Cc3ccc(F)nc3)cc(C(=O)N[C@H]3CCCC[C@@H]3O)nc21 [Example 3, N-[(1S,2S)-2-Hydroxycyclohexyl]-4-(2-fluoropyridin-5-ylmethyl)-1-methyl-1H-pyrrolo[2,3-b]pyridine-6-carboxamide] | 977 | – | – | – | – | – | – | – | – | – | – | – | – | – | –
Cc1ccc(Cc2cc(C(=O)N[C@H]3CCCC[C@@H]3O)nc3c2ccn3C)cn1 [Example 9, N-[(1S,2S)-2-Hydroxycyclohexyl]-4-(2-methylpyridin-5-ylmethyl)-1-methyl-1H-pyrrolo[2,3-b]pyridine-6-carboxamide] | 1570 | – | – | – | – | – | – | – | – | – | – | – | – | – | –
Cn1ccc2c(Cc3ccnc(F)c3)cc(C(=O)N[C@@H]3CCOC[C@H]3O)nc21 (single isomer, unassigned; isomer-i) [Example 39, trans-N-(3-Hydroxytetrahydropyran-4-yl)-4-(2-fluoropyridin-4-ylmethyl)-1-methyl-1H-pyrrolo[2,3-b]pyridine-6-carboxamide (Isomer-I)] | 968 | – | – | – | – | – | – | – | – | – | – | – | – | – | –

Continued, in another order:

EC50 (muscarinic M1 receptor) [nM] | AUC(0-t) ([1]; intravenous (bolus), 1 mg/kg) [ng·h/mL] | clearance ([1]; intravenous (bolus), 1 mg/kg) [mL/min/kg] | half-life ([1]; intravenous (bolus), 1 mg/kg) [h] | AUC(0-t) ([1]; oral (gavage), 3 mg/kg) [ng·h/mL] | Cmax ([1]; oral (gavage), 3 mg/kg) [ng/mL] | half-life ([1]; oral (gavage), 3 mg/kg) [h] | F [1] [%] | Kp [2] | SMILES | Inference (Male Wistar rats; 10 mg/kg) | Exploration time mean ± S.E.M, Familiar object (Male Wistar rats; 10 mg/kg) [s] | Exploration time mean ± S.E.M, Novel object (Male Wistar rats; 10 mg/kg) [s] | Inference (Male Wistar rats; 3 mg/kg) | Exploration time mean ± S.E.M, Familiar object (Male Wistar rats; 3 mg/kg) [s] | Exploration time mean ± S.E.M, Novel object (Male Wistar rats; 3 mg/kg) [s]
407 | 593 ± 79 | 28 ± 4 | 1.2 ± 0.3 | 234 ± 76 | 69 ± 12 | 3.5 ± 3.3 | 13 ± 4 | 1.37 ± 0.1 | CN1CCOc2c(Cc3ccc(F)cc3)cc(C(=O)N[C@H]3CCCC[C@@H]3O)nc21 [Example 120, N-[(1S,2S)-2-Hydroxycyclohexyl]-8-(4-fluorobenzyl)-4-methyl-2H-pyrido[3,2-b][1,4]oxazine-6-carboxamide] | Active | 10.48 ± 1.02 | 15.43 ± 1.23 | – | – | –
241 | 224 ± 66 | 79 ± 27 | 1.5 ± 0.1 | 219 ± 70 | 97 ± 39 | 0.7 ± 0.3 | 32 ± 10 | 0.15 ± 0.01 | Cl.O=C(N[C@H]1CCCC[C@@H]1O)c1cc(Cc2ccc(F)cc2)c2c(n1)CNCC2 [Example 87, N-[(1S,2S)-2-Hydroxycyclohexyl]-4-(4-fluorobenzyl)-5,6,7,8-tetrahydro[1,7]naphthyridine-2-carboxamide Hydrochloride] | – | – | – | – | – | –
38 | 853 ± 109 | 20 ± 3 | 1.3 ± 0.2 | 2710 ± 769 | 887 ± 74 | 3.6 ± 0.1 | 106 ± 30 | 0.27 ± 0.06 | Cn1ccc2c(Cc3ccc(Cl)nc3)cc(C(=O)N[C@H]3CCCC[C@@H]3O)nc21 [Example 18, N-[(1S,2S)-2-Hydroxycyclohexyl]-4-(2-chloropyridin-5-ylmethyl)-1-methyl-1H-pyrrolo[2,3-b]pyridine-6-carboxamide] | Active | 8.00 ± 2.88 | 14.38 ± 1.62 | – | – | –
131 | 791 ± 11 | 21 | 0.7 ± 0.1 | 1090 ± 102 | 825 ± 41 | 0.5 ± 0.2 | 46 ± 4 | 0.63 ± 0.05 | O=C(N[C@H]1CCCC[C@@H]1O)c1cc(Cc2ccc(F)cc2)c2c(n1)OCCO2 [Example 103, N-[(1S,2S)-2-Hydroxycyclohexyl]-8-(4-fluorobenzyl)-2,3-dihydro-[1,4]dioxino[2,3-b]pyridine-6-carboxamide] | – | – | – | Active | 12.20 ± 1.59 | 19.17 ± 3.01
222 | – | – | – | – | – | – | – | – | COc1ccc(Cc2cc(C(=O)N[C@@H]3CCOC[C@H]3O)nc3c2ccn3C)cc1 (single isomer, unassigned; isomer-ii) [Example 61, trans-N-(3-Hydroxytetrahydropyran-4-yl)-4-(4-methoxybenzyl)-1-methyl-1H-pyrrolo[2,3-b]pyridine-6-carboxamide (Isomer-II)] | – | – | – | – | – | –
